These results are taken from patent US7902361B2, “Pyrimidin-4-yl-3, 4-thione compounds and their use in therapy” (Cyclacel Limited, priority 2003, dated 2011).

Read-outs that look alike come from different tables or passages of the source.

The target in one test is CDK9/cyclin T1 (Homo sapiens, UniProt P50750). The experiment in a line: Kinase assay CDK9/cyclin T1. In kind it is biochemical. The note with it: Ki calculated (Cheng-Prusoff) from experimentally determined IC50 and Km,ATP; read-out: Kinase Inhibition Ki CDK9 - cyclin T1. A digest of the protocol:
(§1)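 Radiometric filter assays used recombinant kinases or complexes (2-4 μg) with appropriate polypeptide substrates in pH 7.4 β-glycerophosphate/MOPS buffer. Reactions were started with 15 mM MgCl2 and 100 μM ATP containing [γ-32P]-ATP and run at 30° C. Phosphate incorporated into substrate was counted by scintillation after washing.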

The subject of the next test is PEPCK gene expression. The experiment in a line: PEPCK gene expression assay - qPCR in HEPG2 cells. It counts as cell-based. As to conditions: Homo sapiens, HepG2, HEPG2, read-out: PEPCK gene expression, % of maximum stimulation. As for the experimental part:
PEPCK gene expression was studied in HEPG2 (hepatocarcinoma) cells, seeded in 6-well plate at […] per well. The cells were serum-starved for 20 hours before treatment with dexamethasone/cAMP (stimulator of PEPCK gene expression) in the presence or absence of insulin or GSK3 inhibitor example compounds. After 3 hours treatment the cells were harvested, lysed and RNA extracted using mini RNeasy spin columns (Quiagen). The primer set COD2063/COD2064 (350 bp) was used for the PEPCK gene. The one step RT-PCR was carried out using the Lightcycler-RNA Master SYBR Green 1 Kit. The qPCR analysis calculates the number of the PCR cycles required for the PCR product amplification to reach logarithmic phase. QPCR for a housekeeping gene—28S—was used for normalisation. PEPCK is a key enzyme in gluconeogenesis in the liver and it is known to be negatively regulated by insulin via inhibition of GSK3. The effect of example compounds on PEPCK gene expression was studied in HEPG2 cells treated with dexamethasone/cAMP (a positive regulator PEPCK gene expression) in the presence or absence of insulin or GSK3 inhibitors. Example compound inhibitors of GSK3 were efficient in the abolishment of dexamethasone/cAMP induced stimulation of PEPCK gene expression in HEPG2 cells.

In another test the target is T1, GSK3α (Homo sapiens, UniProt P49840).
T1 construct: purchased Upstate
The test can be described thus: GSK3α in vitro kinase assay. It counts as biochemical. The note with it: recombinant human GSK3α, 100 μM ATP. As to the method:
Both isoforms of GSK3 (α and β) are involved in the regulation of glycogen synthase activity—key enzyme in the glycogen metabolism. The inhibitory potency of example compounds was determined using in vitro kinase assays with recombinant human GSK3-α and -β; the IC50 values determined are presented in Table 9.
A 10-point titration was set up to determine the IC50 values of selected example compounds against GSK3β. Assays were performed using 96-well microtiter plates with a final volume of 25 μL per well. Each assay contained 1.5 units of GSK3β(New England Biolabs), 200 μM CREB phosphopeptide ([…]pSYR, Alta Biosciences), 20 mM Tris HCl pH7.5, 5 mM DTT, 15 mM MgCl2 supplemented with 100 μM ATP and 0.5 μCi of [γ-^32P] ATP plus or minus inhibitor in 2% DMSO. Assays were carried out for 30 minutes at 30° C. before stopping the reaction by the addition of an equal volume of 75 mM aqueous phosphoric acid. Samples were then spotted onto a p81 filterplate (Whatman) and a vacuum was applied. Wells were washed 3 times with 200 μL of dilute aqueous phosphoric acid before the addition of 50 μL Microscint 40 per well. Incorporation of radioactivity was determined on a Topcount microplate scintillation counter (Packard).
GSK3α (Upstate) was assayed exactly as described above except that 1 ng of enzyme was added per assay point.

The target of the next test is CDK7/cyclin H (Homo sapiens, UniProt P50613). The test can be described thus: Kinase assay CDK7/cyclin H. The note with it: Ki calculated (Cheng-Prusoff) from experimentally determined IC50 and Km,ATP; read-out: Kinase Inhibition Ki CDK7 - cyclin H. It counts as biochemical. A digest of the protocol: as §1
In a further test the target is CDK2/cyclin A (Homo sapiens, UniProt P24941). The experiment in a line: Kinase assay CDK2/cyclin A. In kind it is biochemical. The note with it: Ki calculated (Cheng-Prusoff) from experimentally determined IC50 and Km,ATP; read-out: Kinase Inhibition Ki CDK2 - cyclin A. A digest of the protocol: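 Radiometric assays measured transfer of radioactive phosphate from ATP onto polypeptide substrates, using 2-4 μg recombinant active enzyme in buffer typically containing 25 mM β-glycerophosphate, 20 mM MOPS, 5 mM EGTA, 1 mM DTT and 1 mM Na3VO3 at pH 7.4. Reactions were stopped on ice, filtered on P81 or GF/C plates and washed with orthophosphoric acid. Incorporated radioactivity was scintillation-counted.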

Another test concerns the target CDK4/cyclin D1 (Homo sapiens, UniProt P11802). The experiment in a line: Kinase assay CDK4/cyclin D1. In kind it is biochemical. The note with it: Ki calculated (Cheng-Prusoff) from experimentally determined IC50 and Km,ATP; read-out: Kinase Inhibition Ki CDK4 - cyclin D1. The gist of the method:
as §1

Chain of CDK4/cyclin D1 (P11802 whole entry, species assumed): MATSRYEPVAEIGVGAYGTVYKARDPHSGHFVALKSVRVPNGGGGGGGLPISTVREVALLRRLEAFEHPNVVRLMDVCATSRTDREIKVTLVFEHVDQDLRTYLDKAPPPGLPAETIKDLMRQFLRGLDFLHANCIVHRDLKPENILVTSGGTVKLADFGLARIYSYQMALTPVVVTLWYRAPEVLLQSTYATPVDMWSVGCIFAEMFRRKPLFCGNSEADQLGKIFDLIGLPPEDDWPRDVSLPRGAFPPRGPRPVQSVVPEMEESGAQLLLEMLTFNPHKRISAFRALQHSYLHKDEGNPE
Chain of CDK4/cyclin D1 (P24385 whole entry partner, species assumed): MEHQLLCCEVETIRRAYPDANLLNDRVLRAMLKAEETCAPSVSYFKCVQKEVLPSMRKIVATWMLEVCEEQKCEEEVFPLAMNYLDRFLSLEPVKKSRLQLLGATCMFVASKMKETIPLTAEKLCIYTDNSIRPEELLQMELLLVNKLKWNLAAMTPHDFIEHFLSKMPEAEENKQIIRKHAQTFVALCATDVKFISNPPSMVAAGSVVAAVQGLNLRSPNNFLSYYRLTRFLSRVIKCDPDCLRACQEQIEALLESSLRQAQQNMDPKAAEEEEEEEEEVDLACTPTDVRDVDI
T1 sequence (P49840 whole entry): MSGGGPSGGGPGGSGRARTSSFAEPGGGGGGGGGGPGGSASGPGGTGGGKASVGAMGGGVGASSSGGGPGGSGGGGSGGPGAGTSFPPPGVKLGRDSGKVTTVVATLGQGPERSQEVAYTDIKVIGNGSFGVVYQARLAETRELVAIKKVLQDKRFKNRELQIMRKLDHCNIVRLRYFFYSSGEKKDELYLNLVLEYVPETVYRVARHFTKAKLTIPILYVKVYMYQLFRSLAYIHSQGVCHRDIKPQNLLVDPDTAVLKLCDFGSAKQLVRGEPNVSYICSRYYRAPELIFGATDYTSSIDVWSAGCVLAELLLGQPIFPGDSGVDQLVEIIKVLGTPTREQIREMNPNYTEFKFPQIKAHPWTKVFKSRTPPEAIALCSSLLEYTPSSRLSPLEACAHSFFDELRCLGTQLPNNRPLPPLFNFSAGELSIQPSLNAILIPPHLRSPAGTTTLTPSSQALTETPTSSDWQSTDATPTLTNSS
Chain of CDK7/cyclin H (P50613 whole entry, species assumed): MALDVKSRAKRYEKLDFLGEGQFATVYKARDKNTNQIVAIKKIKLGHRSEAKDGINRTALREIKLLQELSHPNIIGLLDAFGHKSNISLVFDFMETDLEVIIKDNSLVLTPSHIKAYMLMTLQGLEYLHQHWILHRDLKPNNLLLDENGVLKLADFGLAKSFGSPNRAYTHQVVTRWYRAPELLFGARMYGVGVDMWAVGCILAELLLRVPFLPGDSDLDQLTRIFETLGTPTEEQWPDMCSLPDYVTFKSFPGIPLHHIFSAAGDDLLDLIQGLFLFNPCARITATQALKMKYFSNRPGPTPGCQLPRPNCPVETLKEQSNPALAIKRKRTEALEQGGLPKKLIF
Chain of CDK7/cyclin H (P51946 whole entry partner, species assumed): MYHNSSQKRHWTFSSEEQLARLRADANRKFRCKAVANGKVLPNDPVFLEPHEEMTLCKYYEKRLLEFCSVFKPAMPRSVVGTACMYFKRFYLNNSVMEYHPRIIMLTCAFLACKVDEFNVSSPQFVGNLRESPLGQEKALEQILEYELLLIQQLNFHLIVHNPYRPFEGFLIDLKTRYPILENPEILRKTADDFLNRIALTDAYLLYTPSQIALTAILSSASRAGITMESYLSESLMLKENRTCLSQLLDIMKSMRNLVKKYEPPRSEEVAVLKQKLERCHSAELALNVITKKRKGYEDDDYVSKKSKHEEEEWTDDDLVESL
Chain of CDK9/cyclin T1 (P50750 whole entry, species assumed): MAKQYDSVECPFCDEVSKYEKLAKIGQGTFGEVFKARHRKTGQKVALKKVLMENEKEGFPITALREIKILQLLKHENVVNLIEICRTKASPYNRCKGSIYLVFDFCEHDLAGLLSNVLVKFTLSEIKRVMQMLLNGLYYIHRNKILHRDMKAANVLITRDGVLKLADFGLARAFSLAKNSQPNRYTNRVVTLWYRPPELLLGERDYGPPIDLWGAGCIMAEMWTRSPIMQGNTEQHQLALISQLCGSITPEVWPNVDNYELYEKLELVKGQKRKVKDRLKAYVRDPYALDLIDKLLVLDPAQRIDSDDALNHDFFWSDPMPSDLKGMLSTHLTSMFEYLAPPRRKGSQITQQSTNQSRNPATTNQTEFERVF
Chain of CDK9/cyclin T1 (O60563 whole entry partner, species assumed): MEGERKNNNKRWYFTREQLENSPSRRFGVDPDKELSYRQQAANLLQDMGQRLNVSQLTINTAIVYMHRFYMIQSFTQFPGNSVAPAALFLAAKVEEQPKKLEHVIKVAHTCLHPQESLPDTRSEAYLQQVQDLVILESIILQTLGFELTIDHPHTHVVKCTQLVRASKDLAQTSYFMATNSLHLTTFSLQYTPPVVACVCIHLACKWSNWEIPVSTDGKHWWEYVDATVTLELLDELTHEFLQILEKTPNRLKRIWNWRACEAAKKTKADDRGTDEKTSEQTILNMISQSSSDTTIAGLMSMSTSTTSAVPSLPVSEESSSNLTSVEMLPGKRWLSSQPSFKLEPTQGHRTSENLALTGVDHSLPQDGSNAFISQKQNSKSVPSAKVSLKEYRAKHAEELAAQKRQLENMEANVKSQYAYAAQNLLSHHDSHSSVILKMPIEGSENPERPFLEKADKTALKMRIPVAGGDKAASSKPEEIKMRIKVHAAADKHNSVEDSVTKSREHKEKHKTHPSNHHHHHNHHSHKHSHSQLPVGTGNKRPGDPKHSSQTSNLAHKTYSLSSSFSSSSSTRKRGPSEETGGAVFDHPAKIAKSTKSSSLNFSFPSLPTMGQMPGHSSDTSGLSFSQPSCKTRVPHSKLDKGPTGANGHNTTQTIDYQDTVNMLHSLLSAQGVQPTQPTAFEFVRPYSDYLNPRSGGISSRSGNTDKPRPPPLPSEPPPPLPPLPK

On to `Cc1c(-c2ccnc(Nc3cc(Br)cc(C(F)(F)F)c3)n2)sc(=O)n1C` [Compound 68, 5-[2-(3-Bromo-5-trifluoromethyl-phenylamino)-pyrimidin-4-yl]-3,4-dimethyl-3H-thiazol-2-one], for which the Ki at CDK9/cyclin T1 was 140 nM. For the same compound, the Emax in the test with PEPCK gene expression (10 μM + Dex/cAMP) turned out to be 60.7 ± 20%. Moreover, the IC50 on GSK3α is 136 nM.
On to `CC(=O)Nc1cc(Nc2nccc(-c3sc(=O)n(C)c3C)n2)cc(C(F)(F)F)c1` [Compound 64, N-{3-[4-(3,4-Dimethyl-2-oxo-2,3-dihydro-thiazol-5-yl)-pyrimidin-2-ylamino]-5-trifluoromethyl-phenyl}-acetamide], for which the figures for the Ki at CDK9/cyclin T1 and at CDK7/cyclin H were 5.7 nM and 3900 nM, respectively. In the test with PEPCK gene expression (0.1 μM + Dex/cAMP), the Emax is 11.4 ± 3.2%. Further, the concentration for half-maximal inhibition (IC50) at GSK3α came out at 2.4 nM.
In the case of `CCNS(=O)(=O)c1cccc(Nc2nccc(-c3sc(=O)n(C)c3C)n2)c1` [Compound 62, 3-[4-(3,4-Dimethyl-2-oxo-2,3-dihydro-thiazol-5-yl)-pyrimidin-2-ylamino]-N-ethyl-benzenesulfonamide], the Ki on CDK2/cyclin A was 610 nM; at CDK9/cyclin T1, 4.8 nM; at CDK7/cyclin H, 1100 nM; at CDK4/cyclin D1, 330 nM. Also, the IC50 on GSK3α turned out to be 27 nM.
On to `CNc1cc(Nc2nccc(-c3sc(=O)n(C)c3C)n2)cc(C(F)(F)F)c1` [Compound 76, 3,4-Dimethyl-5-[2-(3-methylamino-5-trifluoromethyl-phenylamino)-pyrimidin-4-yl]-3H-thiazol-2-one], for which the Ki was 21 nM on CDK9/cyclin T1 and 800 nM at CDK7/cyclin H. At GSK3α, the IC50 was 42 nM.
As for `Cc1c(-c2ccnc(Nc3cccc(S(=O)(=O)NCCO)c3)n2)sc(=O)n1C` [Compound 75, 3-[4-(3,4-Dimethyl-2-oxo-2,3-dihydro-thiazol-5-yl)-pyrimidin-2-ylamino]-N-(2-hydroxy-ethyl)-benzenesulfonamide], the Ki is 410 nM on CDK2/cyclin A, 9.5 nM at CDK9/cyclin T1, 370 nM at CDK7/cyclin H and 150 nM on CDK4/cyclin D1. The figures for the Emax with PEPCK gene expression (1 μM + Dex/cAMP) and in the test with PEPCK gene expression (10 μM + Dex/cAMP) were 37.2 ± 0.37% and 17.1 ± 0.68%, respectively. Moreover, the IC50 at GSK3α is 31 nM.
Consider `COCCNS(=O)(=O)c1cccc(Nc2nccc(-c3sc(=O)n(C)c3C)n2)c1` [Compound 67, 3-[4-(3,4-Dimethyl-2-oxo-2,3-dihydro-thiazol-5-yl)-pyrimidin-2-ylamino]-N-(2-methoxy-ethyl)-benzenesulfonamide], for which the inhibitory constant (Ki) is 1300 nM on CDK2/cyclin A, 4.8 nM at CDK9/cyclin T1, 360 nM on CDK7/cyclin H and 1400 nM on CDK4/cyclin D1. The Emax came out at 101 ± 38.2% in the test with PEPCK gene expression (1 μM + Dex/cAMP) and 17.4 ± 0.97% with PEPCK gene expression (10 μM + Dex/cAMP). The IC50 at GSK3α was determined as 17.8 nM.

By Ki is commonly meant a dissociation constant, usually derived from enzyme kinetics or from competition with a known ligand. The term IC50 denotes the concentration at which inhibition is half-maximal.
